Data from patent publication US20130028920A1, “STABILIZED ANTIBODY PREPARATIONS AND USES THEREOF” (UNIVERSITE DE GENEVE, priority 2010, published 2013).
Entries after “also recorded” stand apart in the source; their conditions may differ.

Columns and labels:
Format in all cases: physicochemical
bevacizumab = assay: Stability of dialyzed, pre-stressed bevacizumab alone and with AMP, percentage of monomers by AFFF-MALS
Description: A 50 mM phosphate buffer pH 7.0 was used. The buffer choice was based on a pH range and buffer capacity that is physiologically tolerated and that is acceptable for the stability of antibodies. […] Samples were analyzed directly after preparation (t0) and after 7, 14 and 28 days. The aggregation state of the antibodies was measured by multi-angle light scattering (MALS) after separation by asymmetrical flow field-flow fractionation (AFFF). […] Data were collected and analysed with the Astra software (Wyatt Technology Europe GmbH, Dernbach, Germany). The aggregation state was expressed as the percentage of monomers versus time.

Avastin® [1] = assay: Effect of AMP on the unmodified commercial bevacizumab formulation (Avastin®), stability by AFFF-MALS; details: 40° C., 28 days, p<0.05
Description: (§1) All samples were stored at 40° C. during 28 days. Samples were analyzed directly after preparation (t0) and after 7, 14 and 28 days. The aggregation state of the antibodies was measured by multi-angle light scattering (MALS) after separation by asymmetrical flow field-flow fractionation (AFFF). […] Data were collected and analysed with the Astra software (Wyatt Technology Europe GmbH, Dernbach, Germany). The aggregation state was expressed as the percentage of monomers versus time.
All samples are stored at a temperature of 40° C. for 28 days and the stability is measured as described in Example 3 and compared to a sample of Avastin® alone stored under the same conditions.

Avastin® [2] = assay: Stability of pre-stressed Avastin® with ATP, GMP or sucrose phosphate, by AFFF-MALS; details: for stabilization of Avastin® across molar ratios: Avastin®:compound 1:1, 1:10 and 1:100, pre-stressed, PBS pH 7.0, 40° C., up to 28 days; for Short-term effects on the antibody, compared among ATP, GMP and sucrose phosphate: short term after addition
Description: as §1, with “Samples were analyzed directly after preparation (t0) and after 7, 14 and 28 days.” left out
After pre-stressing, Avastin® samples were combined with either ATP, GMP or sucrose phosphate at three Avastin®: compound of formula (I) molar ratios (1:1, 1:10 and 1:100). All samples are stored at a temperature of 40° C. for 28 days and stability is measured as described in Example 3 and compared to a sample of Avastin® alone stored under the same conditions. For GMP, a dilution of GMP was made in PBS pH 7.0 and pH was adjusted to 7.0 before the combination with Avastin® to prevent the risk of higher order aggregates caused by the addition of NaOH directly to the antibody formulation.

[3] = molar ratio 1:1, t1 (1 day at 40° C.)
[4] = molar ratio 1:10, t1 (1 day at 40° C.)
[5] = molar ratio 1:100, t1 (1 day at 40° C.)

Row | percentage of monomers (bevacizumab; formulations of bevacizumab with AMP (1:153 by context), 14 days at 40° C., pH 7.0, n=3) | percentage of monomers (bevacizumab; molar ratio bevacizumab:AMP 1:1.53, 14 days at 40° C., pH 7.0) | percentage of monomers (bevacizumab; molar ratio bevacizumab:AMP 1:1.53, 28 days at 40° C., pH 7.0, n=3) | percentage of monomers (bevacizumab; molar ratio bevacizumab:AMP 1:15.3, 14 days at 40° C., pH 7.0) | percentage of monomers (bevacizumab; molar ratio bevacizumab:AMP 1:15.3, 28 days at 40° C., pH 7.0, n=3) | percentage of monomers (bevacizumab; molar ratio bevacizumab:AMP 1:153, 28 days at 40° C., pH 7, n=3) | stabilizing effect versus Avastin® alone (Avastin® [2]; [3]) | stabilizing effect versus Avastin® alone (Avastin® [2]; [4]) | stabilizing properties, compared among ATP, GMP and sucrose phosphate (Avastin® [2]; after 28 days of storage at 40° C.) | Compound | stabilization of the antibody (increase in monomers) versus Avastin® alone (Avastin® [1]; Avastin®:AMP 1:10) | stabilization of the antibody (increase in monomers) versus Avastin® alone (Avastin® [1]; Avastin®:AMP 1:100) | stabilization of Avastin® across molar ratios (Avastin® [2]) | aggregation breaker strength in experiments (Avastin® [2]; compared with AMP) | stabilizing effect versus Avastin® alone (Avastin® [2]; [5]) | stabilizing effect versus Avastin® alone (Avastin® [2]; molar ratio 1:100, t28 (28 days at 40° C.)) | Short-term effects on the antibody, compared among ATP, GMP and sucrose phosphate (Avastin® [2])
1 | higher than 94% | higher than 80% | higher than 76% | higher than 80% | higher than 76% | around 90% | – | – | – | Nc1ncnc2c1ncn2[C@@H]1O[C@H](COP(=O)(O)O)[C@@H](O)[C@H]1O [AMP, adenosine 5′-monophosphate] | significant stabilization is observed at t1, t14 and t28 | such a stabilization is observed only at longer incubation times (t14 and t28) | – | – | – | – | –
2 | – | – | – | – | – | – | destabilizing | destabilizing | most distinct stabilizing properties | Nc1nc2c(ncn2[C@@H]2O[C@H](COP(=O)(O)O)[C@@H](O)[C@H]2O)c(=O)[nH]1 [GMP, guanosine 5′-monophosphate] | – | – | concentration dependent stabilization | – | shows an ability to stabilize the antibody | – | –
3 | – | – | – | – | – | – | stabilizing effect is observed | stabilizing effect is observed | – | sucrose phosphate | – | – | concentration-dependent stabilization; also recorded: concentration-dependent stabilizing effect continues up to 28 days | – | stabilizing effect is observed | – | most pronounced

Row | Compound | percentage of monomers (bevacizumab; formulations of bevacizumab with AMP (1:153 by context), 14 days at 40° C., pH 7.0, n=3) | percentage of monomers (bevacizumab; molar ratio bevacizumab:AMP 1:1.53, 14 days at 40° C., pH 7.0) | percentage of monomers (bevacizumab; molar ratio bevacizumab:AMP 1:1.53, 28 days at 40° C., pH 7.0, n=3) | percentage of monomers (bevacizumab; molar ratio bevacizumab:AMP 1:15.3, 14 days at 40° C., pH 7.0) | percentage of monomers (bevacizumab; molar ratio bevacizumab:AMP 1:15.3, 28 days at 40° C., pH 7.0, n=3) | percentage of monomers (bevacizumab; molar ratio bevacizumab:AMP 1:153, 28 days at 40° C., pH 7, n=3) | stabilizing effect versus Avastin® alone (Avastin® [2]; [3]) | stabilizing effect versus Avastin® alone (Avastin® [2]; [4]) | stabilizing properties, compared among ATP, GMP and sucrose phosphate (Avastin® [2]; after 28 days of storage at 40° C.) | stabilization of the antibody (increase in monomers) versus Avastin® alone (Avastin® [1]; Avastin®:AMP 1:10) | stabilization of the antibody (increase in monomers) versus Avastin® alone (Avastin® [1]; Avastin®:AMP 1:100) | stabilization of Avastin® across molar ratios (Avastin® [2]) | aggregation breaker strength in experiments (Avastin® [2]; compared with AMP) | stabilizing effect versus Avastin® alone (Avastin® [2]; [5]) | stabilizing effect versus Avastin® alone (Avastin® [2]; molar ratio 1:100, t28 (28 days at 40° C.)) | Short-term effects on the antibody, compared among ATP, GMP and sucrose phosphate (Avastin® [2])
4 | Nc1ncnc2c1ncn2[C@@H]1O[C@H](COP(=O)(O)OP(=O)(O)OP(=O)(O)O)[C@@H](O)[C@H]1O [ATP, adenosine 5′-triphosphate] | – | – | – | – | – | – | stabilizing effect is observed | stabilizing effect is observed | – | – | – | concentration dependent stabilization | less strong breaker than AMP | stabilizing effect is observed | significant stabilizing effect | most pronounced
